ChEMBL document CHEMBL1201862, “PubChem BioAssay data set” (2004)
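Cultured in 96-well plates, cells were exposed to test compound for 48 hours across five concentrations. GI50 is the concentration that inhibits growth by half.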 Calls of active or inactive are those of the source. Cut-off read from the data, not from the text of the source: active = GI50 up to about 1.1 µM and inactive = higher.

Experiments:
Experiment in all cases: DTP human tumour cell line panel, 48 h
SW-620 = test system: SW-620
HOP-62 = test system: HOP-62
M14 = test system: M14
COLO 205 = test system: COLO 205
M19-MEL = test system: M19-MEL
SNB-78 = test system: SNB-78
HOP-18 = test system: HOP-18
UACC-257 = test system: UACC-257
OVCAR-3 = test system: OVCAR-3
K562 = test system: K562
DMS-114 = test system: DMS-114
RPMI-8226 = test system: RPMI-8226
SF-295 = test system: SF-295
SF-268 = test system: SF-268
SK-OV-3 = test system: SK-OV-3
SNB-75 = test system: SNB-75
SK-MEL-2 = test system: SK-MEL-2
U-251 = test system: U-251
XF498 = test system: XF498
SK-MEL-28 = test system: SK-MEL-28
NCI-H522 = test system: NCI-H522
LOX IMVI = test system: LOX IMVI
RXF 631 = test system: RXF 631
UACC-62 = test system: UACC-62
OVCAR-8 = test system: OVCAR-8
DLD-1 = test system: DLD-1
HCT-116 = test system: HCT-116
IGROV-1 = test system: IGROV-1
EKVX = test system: EKVX
LXFL 529 = test system: LXFL 529
786-0 = test system: 786-0
NCI-H460 = test system: NCI-H460
OVCAR-4 = test system: OVCAR-4
CAKI-1 = test system: CAKI-1
KM12 = test system: KM12
SR = test system: SR
UO-31 = test system: UO-31
ACHN = test system: ACHN
HT-29 = test system: HT-29
DMS-273 = test system: DMS-273
MOLT-4 = test system: MOLT-4
OVCAR-5 = test system: OVCAR-5
TK-10 = test system: TK-10
NCI-H23 = test system: NCI-H23
SNB-19 = test system: SNB-19
A549 = test system: A549
CCRF-CEM = test system: CCRF-CEM
KM-20L2 = test system: KM-20L2
HL-60 = test system: HL-60
Malme-3M = test system: Malme-3M
SF-539 = test system: SF-539
HCT-15 = test system: HCT-15

SMILES: CCCCCC/C=C/CCCCCCCc1cccc(O)c1C(=O)O
- GI50 (SW-620): 62.4 µM (inactive)
- GI50 (HOP-62): 33.6 µM (inactive)
- GI50 (M14): > 100 µM (inactive)
- GI50 (COLO 205): > 100 µM (inactive)
- GI50 (M19-MEL): > 100 µM (inactive)
- GI50 (SNB-78): > 100 µM (inactive)
- GI50 (HOP-18): 48.4 µM (inactive)
- GI50 (UACC-257): 49.4 µM (inactive)
- GI50 (OVCAR-3): 42.3 µM (inactive)
- GI50 (K562): 37.2 µM (inactive)
- GI50 (DMS-114): > 100 µM (inactive)
- GI50 (RPMI-8226): 54.2 µM (inactive)
- GI50 (SF-295): > 100 µM (inactive)
- GI50 (SF-268): 26.9 µM (inactive)
- GI50 (SK-OV-3): 36.3 µM (inactive)
- GI50 (SNB-75): > 100 µM (inactive)
- GI50 (SK-MEL-2): > 100 µM (inactive)
- GI50 (U-251): 27.3 µM (inactive)
- GI50 (XF498): > 100 µM (inactive)
- GI50 (SK-MEL-28): 83 µM (inactive)
- GI50 (NCI-H522): 52.8 µM (inactive)
- GI50 (LOX IMVI): 70.6 µM (inactive)
- GI50 (RXF 631): > 100 µM (inactive)
- GI50 (UACC-62): 36.4 µM (inactive)
- GI50 (OVCAR-8): 50.8 µM (inactive)
- GI50 (DLD-1): 43.6 µM (inactive)
- GI50 (HCT-116): > 100 µM (inactive)
- GI50 (IGROV-1): 44.9 µM (inactive)
- GI50 (EKVX): 32.7 µM (inactive)
- GI50 (LXFL 529): 45.4 µM (inactive)
- GI50 (786-0): > 100 µM (inactive)
- GI50 (NCI-H460): 9.75 µM (inactive)
- GI50 (OVCAR-4): > 100 µM (inactive)
- GI50 (CAKI-1): > 100 µM (inactive)
- GI50 (KM12): > 100 µM (inactive)
- GI50 (SR): > 100 µM (inactive)
- GI50 (UO-31): 86.9 µM (inactive)
- GI50 (ACHN): 85.5 µM (inactive)
- GI50 (HT-29): 14.4 µM (inactive)
- GI50 (DMS-273): 34.9 µM (inactive)
- GI50 (MOLT-4): 48.5 µM (inactive)
- GI50 (OVCAR-5): > 100 µM (inactive)
- GI50 (TK-10): 70.3 µM (inactive)
- GI50 (NCI-H23): 38.5 µM (inactive)
- GI50 (SNB-19): 34.7 µM (inactive)
- GI50 (A549): 50.4 µM (inactive)
- GI50 (CCRF-CEM): 39.5 µM (inactive)
- GI50 (KM-20L2): > 100 µM (inactive)
- GI50 (HL-60): > 100 µM (inactive)
- GI50 (Malme-3M): > 100 µM (inactive)
- GI50 (SF-539): 59.4 µM (inactive)
- GI50 (HCT-15): 38.4 µM
